Legend:
[1] = tested on: rat gastrointestinal obstruction model; assay: Drug effect test in gastrointestinal obstruction model: intestinal fluid weight; assay type: in vivo, rats; details: for intestinal fluid weight compared to the vehicle: rats, subcutaneous 40 nmol/kg, 1 hour after administration; for Intestinal fluid weight: jejunum wet weight-dry weight, 40 μM solution 1 mL/kg subcutaneous 18 h after surgery, one hour after administration
Source text: Anesthesia was introduced with inhalation of 2% isoflurane and laughing gas:oxygen=7:3, and this was maintained throughout the surgery. A median incision was made in the abdomen, and the jejunum at about 10 cm from the musculus suspensorius duodeni was ligated with a surgical suture. Then, the incision site was promptly sutured, and the rats were fasted until compound administration. In the sham treatment group, ligation of the jejunum was not performed, but the treatment of suturing the incision site after a median incision was made in the abdomen was performed.
(§1) Eighteen hours after the gastrointestinal obstruction surgery, this was subcutaneously administered into the dorsal cervix at a dosage of 1 mL/kg with a glass syringe and a 25 G injection needle (all from Terumo Corporation). As the vehicle group, saline without glycosylated polypeptide was similarly administered.
One hour after compound administration, a median incision was made in the abdomen under inhalation anesthesia, and 1.5 mL of blood was collected from the abdominal vena cava. Then, the ligated jejunum on the musculus suspensorius duodeni side was resected. The fluid and blood on the jejunum surface were removed with a paper towel, nerves, blood vessels, and fat attached to the jejunum was removed, this was cut into 6 cm lengths, and wet weight was measured. This was then dried at 36 degrees for 24 hours, and dry weight was measured. The intestinal fluid weight (mg) was calculated by wet weight-dry weight.

[2] = tested on: rat gastrointestinal obstruction model; assay: Gastrointestinal obstruction model: blood parameters (amylase, LDH, CPK); assay type: in vivo, rats; details: for LDH activity compared to the vehicle / amylase activity compared to the vehicle: rats, blood 1 hour after administration; for Amylase / CPK / LDH: rat gastrointestinal obstruction model, blood collected 1 hour after subcutaneous administration of 40 μM solution at 1 mL/kg, 18 hours after surgery
Procedure: This experimental line was carried out as a test line to evaluate the promotion of intestinal fluid absorption or the secretory suppressing action, using the change in the intestinal fluid weight in the jejunum after bowel obstruction as an indicator. Moreover, blood parameters of deviation enzymes amylase (pancreas), lactate dehydrogenase (LDH, liver), and creatine phosphokinase (CPK, skeletal muscle, cardiac muscle etc.) were measured as indicators of tissue disorders.
The present test was consigned to Mitsubishi Chemical Medience Corporation and carried out. […] Anesthesia was introduced with inhalation of 2% isoflurane and laughing gas:oxygen=7:3, and this was maintained throughout the surgery. A median incision was made in the abdomen, and the jejunum at about 10 cm from the musculus suspensorius duodeni was ligated with a surgical suture. Then, the incision site was promptly sutured, and the rats were fasted until compound administration. In the sham treatment group, ligation of the jejunum was not performed, but the treatment of suturing the incision site after a median incision was made in the abdomen was performed.
as §1
One hour after compound administration, a median incision was made in the abdomen under inhalation anesthesia, and 1.5 mL of blood was collected from the abdominal vena cava.
The measuring methods employed were BG5B, UV-rate, and JSCC methods, respectively.

[3] = tested on: growth hormone (GH) production; assay: GH production suppression test with rats; assay type: in vivo; details: for GH production suppression activity: administration of 10 or 100 nmol/kg;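 as to all read-outs here: plasma GH measured by EIA in blood drawn 5 min after intravenous GRF stimulus, given 1 h after compound dosing, compared against saline-treated vehicle rats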
Procedure: This experimental line was carried out as a test line that can evaluate the pharmacological action of the glycosylated form on SSTR and its residence in blood after administration, with blood GH production amount as an indicator.
Moreover, GRF (GH releasing hormone, Growth hormone releasing factor) was used as the GH release enhancer. […] As heparin employed as the anticoagulant when collecting blood, Japanese Pharmacopeia heparin sodium injectable solution (Lot. B084, from Mochida Pharmaceutical Co., Ltd.) was used directly as stock solution.
As the control group, saline without glycosylated polypeptide was similarly administered (vehicle group). […] One hour after administration of the glycosylated form, i.e. after 50 minutes or more had passed under anesthesia, GRF was administered as the GH release enhancer to the tail vain at a dosage of 1 mL/kg with a glass syringe and an injection needle. Five minutes after administration of GRF, blood was collected from the rat cervical vein with a glass syringe containing heparin and an injection needle. 0.4 mL of the collected blood was left on ice for 20 minutes or more, then centrifuged (1,870×g, 4° C., 10 minutes), and 100 μL of the supernatant was taken as the plasma sample. As blank plasma, plasma obtained by similarly treating the blood collected from untreated rat cervical vein was employed. Plasma samples were frozen in storage until employed for measurement.
Measurement of GH concentration in the plasma sample obtained in the above 89-2 was performed with rat Growth Hormone EIA kit from SPI-Bio (SPI-Bio, A05104). The plasma sample was diluted with the assay buffer supplied in the EIA kit to 20, 100, and 500-folds as measurement samples. […] By multiplying the results obtained and the dilution ratio, the GH concentration was calculated.

SSTR1-SSTR5 = assay: Competitive binding assay, statements over all receptors; set-up: species or system Human; details: Example 69-1, range over SSTR1-SSTR5
[4] = Pharmacokinetics test with rats (intravenous and subcutaneous administration)
Procedure: 0.2 mL of the collected blood was promptly mixed with 0.2 mL of the aprotinin-containing EDTA-PBS solution prepared in the above 70-1, and left on ice for 30 minutes or more. […] As blank plasma, plasma obtained by similarly treating the blood collected from untreated rat cervical vein was employed. Plasma samples were frozen in storage until employed for measurement.
The standard solution for creating a standard curve was prepared as follows. First, the blank plasma obtained in the above 70-2 was diluted with the assay buffer supplied in the EIA kit similarly to the plasma sample, and this was used as the assay buffer for standard solution preparation (for example, when diluting the plasma sample to 100-fold, 1/100 amount of blank plasma was added to the assay buffer supplied in the EIA kit, and this was used as the assay buffer for standard solution preparation).
Moreover, the predicted initial concentration (C0) was determined by the extrapolation method for intravenous administration, t1/2 and MRT were calculated, and the maximum plasma concentration (Cmax) was determined from the actual value for subcutaneous administration.
Moreover, the parameters obtained were employed to calculate bioavailability from the following mathematical formula. BA (%)=(AUC(sc)/Dose(sc))/(AUC(iv)/Dose(iv))
AUC(sc): AUC for subcutaneous administration (min·nM)
Dose(sc): Administration dose for subcutaneous administration (nmol/kg)
AUC(iv): AUC for intravenous administration (min·nM)
Dose(iv): Administration dose for intravenous administration (nmol/kg)

[5] = Table 8, plasma GH, dose 1 nmol/kg
[6] = Table 8, plasma GH, dose 3 nmol/kg
[7] = Table 8, plasma GH, dose 30 nmol/kg
[8] = Table 8, plasma GH, dose 10 nmol/kg
[9] = intravenous administration, Table 5A
[10] = subcutaneous administration, Table 5A
[11] = Table 7, plasma GH, dose 1 nmol/kg subcutaneous, GRF 1 hour after administration, blood 5 min after GRF
[12] = Table 7, plasma GH, dose 10 nmol/kg subcutaneous, GRF 1 hour after administration, blood 5 min after GRF
[13] = Table 8, plasma GH, dose 100 nmol/kg

For C[C@@H](O)[C@@H]1NC(=O)[C@H](CCCCN)NC(=O)[C@@H](Cc2c[nH]c3ccccc23)NC(=O)[C@H](Cc2ccccc2)NC(=O)[C@@H](NC(=O)[C@H](N)Cc2ccccc2)CSSC[C@@H](C(=O)N[C@H](CO)[C@@H](C)O)NC1=O [Octreotide, reference compound], the “intestinal fluid weight compared to the vehicle” value [1] was “confirmed to have this effect”, the “LDH activity compared to the vehicle” value [2] was “low value compared to the vehicle” and the “amylase activity compared to the vehicle” value [2] was “equivalent to the vehicle”.

In the case of A9C(disialo)-SRIF28 [Example 3], the “GH production suppression effect” value ([3]; rats, subcutaneous, 10 nmol/kg) is reported as 95-99%.

In the case of C(disialo)-R-K-SRIF14 [Example 18], the “GH” value [3, 5] is reported as 912 ng/mL, the “GH” value [3, 6] is reported as 291 ng/mL and the “GH” value [3, 7] is reported as 12 ng/mL. The “GH production suppression effect” value ([3]; rats, subcutaneous, 10 nmol/kg) was 95-99%, the “Intestinal fluid weight” value [1] was 584 ± 95 mg and the “intestinal fluid weight compared to the vehicle” value [1] was “increase in the intestinal fluid weight compared to the vehicle”. For the same compound, the Amylase [2] was 985 ± 238 IU/L, the CPK [2] was 415 ± 137 IU/L and the LDH [2] was 228 ± 155 IU/L. The “LDH activity compared to the vehicle” value [2] was “low value compared to the vehicle”, the “amylase activity compared to the vehicle” value [2] was “low value compared to the vehicle” and the “affinity towards SSTR1-SSTR5, folds higher than S1C(disialo)-SRIF28” value (SSTR1-SSTR5) was 0.7-2.4 folds.

In the case of E12C(disialo)-SRIF28 [Example 4], the “GH production suppression effect” value ([3]; rats, subcutaneous, 10 nmol/kg) is reported as 95-99%.

For K14C(disialo)-SRIF28 [Example 6], the “GH production suppression activity” value ([3]; rats) was “showed GH production suppression activity”.

For N5C(disialo)-SRIF28 [Example 2], the “GH production suppression effect” value ([3]; rats, subcutaneous, 10 nmol/kg) was 95-99%.

For R13C(disialo)-SRIF28 [Example 5], the “GH production suppression activity” value ([3]; rats) was “showed GH production suppression activity”.

With S1-2C(asialo)-SRIF28 [Example 28] the “GH production suppression effect” value ([3]; rats, subcutaneous, 10 nmol/kg) was 70-99%, the “intestinal fluid weight compared to the vehicle” value [1] was “increase in the intestinal fluid weight compared to the vehicle” and the “affinity towards SSTR1-SSTR5, folds higher than S1C(disialo)-SRIF28” value (SSTR1-SSTR5) was 1.7-2.9 folds.

For S1-5C(disialo)-SRIF28 [Example 34], the “GH” value [3, 8] was 842 ng/mL, the “GH production suppression activity” value ([3]; rats) was “showed GH production suppression activity” and the AUC [4, 9] was 6016 ± 873 nM·min. For the same compound, the C0 [4, 9] was 752 ± 81.4 nM, the MRT [4, 9] was 0.817 ± 0.101 h and the t1/2 [4, 9] was 1.66 ± 0.233 h. The “AUC for subcutaneous administration, folds of S1C(disialo)-SRIF28” value ([4]; subcutaneous) was 1.8-3.1 folds, the AUC [4, 10] was 5524 ± 633 nM·min and the Cmax [4, 10] was 13.5 ± 2.85 nM. The MRT [4, 10] was 6.48 ± 0.833 h, the t1/2 [4, 10] was 4.52 ± 0.645 h and the “bioavailability (BA)” value ([4]; subcutaneous vs intravenous AUC) was 92%. For the same compound, the BA ([4]; subcutaneous vs intravenous administration, Table 5A) was 92%.

In the case of S1C(asialo)-SRIF28 [Example 27], the “GH production suppression effect” value ([3]; rats, subcutaneous, 10 nmol/kg) is reported as 70-99%.

For S1C(disialo(Bn))-SRIF28 [Example 61], the “GH production suppression effect” value ([3]; rats, subcutaneous, 10 nmol/kg) was 95-99%.

With S1C(disialo(amide))-SRIF28 [Example 60] the “GH production suppression effect” value ([3]; rats, subcutaneous, 10 nmol/kg) was 70-99%.

With “S1C(disialo(aminoethylamide))-SRIF28 [Example 59]” the “GH production suppression effect” value ([3]; rats, subcutaneous, 10 nmol/kg) was 70-99%.

In the case of “S1C(disialo)-D-Trp22-SRIF28 [Example 15]”, the “GH production suppression effect” value ([3]; rats, subcutaneous, 10 nmol/kg) is reported as 95-99%.

In the case of S1C(disialo)-SRIF28 [Example 1], the “GH” value [3, 11] is reported as 490 ng/mL, the “GH” value [3, 12] is reported as 17.1 ng/mL and the “GH” value [3, 5] is reported as 787 ng/mL. For the same compound, the “GH” value [3, 6] was 182 ng/mL, the “GH” value [3, 8] was 15 ng/mL and the “GH” value [3, 7] was 8 ng/mL. The “GH” value [3, 13] was 7 ng/mL, the “dose from which GH production was suppressed” value ([3]; rats, subcutaneous) was at least 1 nmol/kg and the “GH production suppression effect” value ([3]; rats, subcutaneous, 3-10 nmol/kg) was 82-99%. For the same compound, the “Intestinal fluid weight” value [1] was 630 ± 83 mg, the “intestinal fluid weight compared to the vehicle” value [1] was “increase in the intestinal fluid weight compared to the vehicle” and the Amylase [2] was 1164 ± 224 IU/L. The CPK [2] was 455 ± 202 IU/L, the LDH [2] was 338 ± 97 IU/L and the “amylase activity compared to the vehicle” value [2] was “low value compared to the vehicle”.

With “S1C(disialo)•N5C(disialo)-SRIF28 [Example 21]” the “GH” value [3, 11] was 776 ng/mL, the “GH” value [3, 12] was 181 ng/mL and the “GH” value [3, 5] was 776 ng/mL. The “GH” value [3, 8] was 181 ng/mL and the “GH production suppression activity” value ([3]; rats) was “showed GH production suppression activity”.

For “S1C(disialo)•N5C(disialo)•A9C(disialo)-SRIF28 [Example 25]”, the “GH” value [3, 12] was 833 ng/mL, the “GH” value ([3]; Table 7, plasma GH, dose 100 nmol/kg subcutaneous, GRF 1 hour after administration, blood 5 min after GRF) was 151 ng/mL and the “GH” value [3, 13] was 151 ng/mL. For the same compound, the “GH production suppression activity” value ([3]; rats) was “showed GH production suppression activity”.

With S1C(monosialo)-SRIF28 [Example 26] the “GH production suppression effect” value ([3]; rats, subcutaneous, 10 nmol/kg) was 70-99%.

Source: US9802996B2, “Glycosylated polypeptide and drug composition containing said polypeptide” (Glytech, Inc., priority 2011, dated 2017)
